Experimental data published in US5753516A, “Screening method for ligands of the EBI-1 receptor” (priority 1995, dated 1998).
Several values for one entry are separate records, joined by “and”; a condition that tells them apart may be missing. Equal entries are not always repeated. Entries after “also recorded” stand apart in the source; their conditions may differ. Where two headings read alike, the source gives them in different places.

How the values were obtained:
[1] = test system: Jurkat cells; experiment: MET-ENK-FITC binding to Jurkat cells (flow cytometry, Scatchard); set-up: species or system human
[2] = test system: NALM 6 cells; experiment: Flow cytometry of surface molecule expression on NALM 6 cells; format: cell-based, human; conditions: for surface expression of CD9: NALM 6 / pre-B ALL cells
Method: NALM 6 cells (10^6 /ml) were incubated at 37° with MET-ENK (10^-7 M) for 0 (Panel A and B) or 30 minutes (Panel C and D). Cells were then transferred to an ice bath, pelleted by centrifugation, and stained for immunofluorescent analysis and flow cytoflourimetry. Data are shown as histograms depicting the distribution of 10,000 cells labeled with anti-CD9 (Panel A and C) or CD-10 (Panel B and D) mAb. The anti-CD9 and anti-CD10 mAb used for these experiments were isotype matched (IgG1).
FIG. 4, Panels A-C. […] Data are presented as mean fluorescence intensities measured for 10,000 cells labeled with anti-CD9 or CD10 mAb. In Panel A, the NALM 6 Cells were incubated with MET-ENK (10^-7 M) for the times indicated. In Panel B, the LAZ 221 cells were incubated with MET-ENK at the doses indicated for 5 minutes at 37° C. […] The anti-CD9 and anti-CD10 mAb used for these experiments were of the IgG2a isotype.
Immunofluorescence Staining and Flow Cytometric Analysis of Cell Surface Molecules: Cells were resuspended at 1×10^6 /ml in PBS and then incubated for periods of 5 to 120 minutes at 37° C. with MET-ENK at doses of 0 to 10^-5 M. Incubations were terminated by transferring samples to an ice bath and then pelleting the cells by centrifugation at 1800 rpm for 5 minutes at 4° C.
Immunofluorescence staining was carried out in 4-ml tubes maintained in an ice water bath. […] Cells were subsequently fixed within a 2% solution of formalin and maintained in the dark at 10° C. until analyzed.
Flow cytometric analysis was performed using a FACS SCAN Flow Cytometer (Becton Dickinson, Mountain View, Calif.) equipped with a HP9000 Series computer and the Lysys System software analysis package. Data were collected as histograms depicting the fluorescence intensity for 5,000 to 10,000 cells per sample.
The non-binding IgG1 MOPC myeloma protein, anti-macrophage/monocyte specific CD14 (MO2; IgG2) and anti-T cell specific CD3 (OKT3; IgG2a) mAb were employed as nonreactive controls for measuring the autofluorescence of B cells.

[3] = test system: NALM 6 cells; experiment: MET-ENK-FITC binding to NALM 6 cells (flow cytometry, Scatchard); set-up: species or system human; conditions: NALM 6
[4] = listed as methionine enkephalin
[5] = read-out: Kd, high affinity site
[6] = read-out: Kd, low affinity site
[7] = NALM 6, 10^-7 M MET-ENK, untreated 1.0
[8] = NALM 6, 10^-7 M MET-ENK, untreated 1.1
[9] = NALM 6, 10^-7 M MET-ENK, untreated 1.8

SMILES: CSCC[C@H](NC(=O)[C@H](Cc1ccccc1)NC(=O)CNC(=O)CNC(=O)[C@@H](N)Cc1ccc(O)cc1)C(=O)O [MET-ENK, Tyr-Gly-Gly-Phe-Met]
- Bmax, low affinity sites [1]: 3.3×10^4 sites/cell and 3.0×10^4 sites/cell
- number of high affinity sites [1]: 3.3 pM
- number of low affinity sites [1]: 101 pM
- Bmax, low affinity sites [1, 4]: 3.0×10^4 sites/cell
- Kd [1, 5]: 1.36 nM
- Kd [1, 6]: 318 nM
- duration of enhanced CD9 expression ([2]; MET-ENK 10^-7 M): 60 min
- time of decline of CD9 expression to near baseline ([2]; MET-ENK 10^-7 M): 120 min
- incubation time causing increase in CD9 expression ([2]; MET-ENK 10^-7 M, pre-B ALL cells): ≤ 10 min
- staining for β-1 integrins, MET-ENK treated vs not ([2]; NALM 6): equivalent on NALM 6 cells incubated with (+) or without (-) MET-ENK
- CD11b (Mac 1) fluorescence ratio (mAb/isotype control) ([2]; NALM 6, 10^-7 M MET-ENK 30 min, untreated 1.0): 1.1
- CD4 fluorescence ratio [2, 7]: 1.0
- CD44 (homing receptor) fluorescence ratio [2, 7]: 2.2
- CD49b (VLA-α2 chain) fluorescence ratio [2, 7]: 0.9
- CD58 (LFA-3) fluorescence ratio [2, 7]: 0.9
- CD18 (Integrin β chain) fluorescence ratio [2, 8]: 1.4
- CD45 (T200) fluorescence ratio [2, 8]: 1.0
- VLA-1 fluorescence ratio [2, 8]: 0.6
- VLA-3 fluorescence ratio [2, 8]: 0.7
- CD20 fluorescence ratio ([2]; NALM 6, 10^-7 M MET-ENK, untreated 1.5): 1.3
- CD72 fluorescence ratio ([2]; NALM 6, 10^-7 M MET-ENK, untreated 1.6): 2.8
- CD23 fluorescence ratio [2, 9]: 1.6
- CD49f (VLA-α6 chain) fluorescence ratio [2, 9]: 1.3
- CD22 fluorescence ratio ([2]; NALM 6, 10^-7 M MET-ENK, untreated 2.3): 3.1
- CD49d (VLA-α4 chain) fluorescence ratio ([2]; NALM 6, 10^-7 M MET-ENK, untreated 3.9): 4.4
- VLA-5 fluorescence ratio ([2]; NALM 6, 10^-7 M MET-ENK, untreated 5.2): 4.9
- CD29 (VLA-β chain) fluorescence ratio ([2]; NALM 6, 10^-7 M MET-ENK, untreated 8.4): 9.3
- CD54 (ICAM-1) fluorescence ratio ([2]; NALM 6, 10^-7 M MET-ENK, untreated 9.3): 10.5
- VLA-β; DE9N fluorescence ratio ([2]; NALM 6, 10^-7 M MET-ENK, untreated 13.6): 13.8
- surface expression of CD10 ([2]; NALM 6 / LAZ 221): no effect on CD10 expression
- surface expression of CD9 [2]: upregulation of CD9; also recorded: transient increase in their surface expression of CD9 but not CD10 molecules
- surface expression of CD9 ([2]; listed as Methionine-enkephalin): discrete, transient up-regulation in the CD9 molecules; also recorded: rapid and dose-dependentincrease in the CD9 but not CD10 molecules
- CD9 expression, cells in ice water bath ([2]; ice water bath, data not shown): had no effect when they were maintained in an ice water bath
- Bmax, low affinity sites [3]: 4.48×10^4 sites/cell
- number of high affinity sites [3]: 25.9 pM
- number of low affinity sites [3]: 149 pM
- Bmax, low affinity sites [3, 4]: 4.48×10^4 sites/cell
- Kd [3, 5]: 1.01 nM
- Kd [3, 6]: 318 nM
